Reference: patent publication US11254663B2 (BRISTOL-MYERS SQUIBB COMPANY, priority 2019, dated 2022)

Molecular target: FXR (Homo sapiens (Human), UniProt Q96RI1)
Experiment: transient human FXR/Gal4-luciferase reporter assay
Format: cell-based
Settings: not given
Method in brief: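 HEK293 cells stably carrying a 5×Gal4 response element–firefly luciferase reporter were transiently transfected overnight with a Gal4 DBD–human FXR LBD fusion plasmid. Compound was added in DMSO and cells were incubated overnight at 37 °C, 5% CO2. Activity was read as Steady-Glo luminescence.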

Chain of FXR (Q96RI1 262-486): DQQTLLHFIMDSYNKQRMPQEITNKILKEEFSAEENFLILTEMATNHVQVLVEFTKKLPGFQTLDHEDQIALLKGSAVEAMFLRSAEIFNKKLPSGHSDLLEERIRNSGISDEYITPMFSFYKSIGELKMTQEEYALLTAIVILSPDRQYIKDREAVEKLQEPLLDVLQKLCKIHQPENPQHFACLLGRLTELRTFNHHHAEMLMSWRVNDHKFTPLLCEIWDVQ

| Structure (SMILES) | EC50 [nM] |
| --- | --- |
| CCOc1ccc(-c2cccc(N(CC34CCC(c5noc(C(F)F)n5)(CC3)CC4)C(=O)C34CC(F)(C3)C4)c2)cc1 [Example 461, N-((4-(5-(difluoromethyl)-1,2,4-oxadiazol-3-yl)bicyclo[2.2.2]octan-1-yl)methyl)-N-(4′-ethoxy-[1,1′-biphenyl]-3-yl)-3-fluorobicyclo[1.1.1]pentane-1-carboxamide] | 603 |
| CCOc1ccc(-c2cccc(N(CC34CCC(c5ccc(C(F)(F)F)cn5)(CC3)CC4)C(=O)C34CC(F)(C3)C4)c2)cc1 [Example 489, N-(4′-ethoxy-[1,1′-biphenyl]-3-yl)-3-fluoro-N-((4-(5-(trifluoromethyl)pyridin-2-yl)bicyclo[2.2.2]octan-1-yl)methyl)bicyclo[1.1.1]pentane-1-carboxamide] | 1640 |
| Cc1nc2ccc(-c3cccc(N(CC45CCC(c6nc(C7CC7)no6)(CC4)OC5)C(=O)C4CC(C(F)F)C4)c3)cc2s1 (stereo not drawn) [Example 566, N-((1-(3-cyclopropyl-1,2,4-oxadiazol-5-yl)-2-oxabicyclo[2.2.2]octan-4-yl)methyl)-3-(difluoromethyl)-N-(3-(2-methylbenzo[d]thiazol-6-yl)phenyl)cyclobutane-1-carboxamide] | 922 |
| O=C(N(CC12CCC(c3noc(C(F)F)n3)(CC1)CC2)c1cccc(-c2cnc(C3CC3)nc2)c1)C12CC(F)(C1)C2 [Example 463, N-(3-(2-cyclopropylpyrimidin-5-yl)phenyl)-N-((4-(5-(difluoromethyl)-1,2,4-oxadiazol-3-yl)bicyclo[2.2.2]octan-1-yl)methyl)-3-fluorobicyclo[1.1.1]pentane-1-carboxamide] | 215 |
| COc1ncc(-c2ccnc(N(CC34CCC(c5noc(C(C)(C)C)n5)(CC3)CC4)C(=O)C34CC(F)(C3)C4)c2)cn1 [Example 538, N-((4-(5-(tert-butyl)-1,2,4-oxadiazol-3-yl)bicyclo[2.2.2]octan-1-yl)methyl)-3-fluoro-N-(4-(2-methoxypyrimidin-5-yl)pyridin-2-yl)bicyclo[1.1.1]pentane-1-carboxamide] | 121 |

Same assay, conditions: Gal4-hFXR fusion construct, HEK293 reporter cells; response relative to 8 μM GW-4064

| Structure (SMILES) | EC50 [nM] |
| --- | --- |
| Cc1nc2ccc(-c3ccnc(N(CC45CCC(c6nc(C7CC7)no6)(CC4)CC5)C(=O)C45CC(F)(C4)C5)c3)cc2o1 [Example 550, N-((4-(3-cyclopropyl-1,2,4-oxadiazol-5-yl)bicyclo[2.2.2]octan-1-yl)methyl)-3-fluoro-N-(4-(2-methylbenzo[d]oxazol-6-yl)pyridin-2-yl)bicyclo[1.1.1]pentane-1-carboxamide] | 70 |
| N#Cc1cc2c(nc1-c1cccc(N(CC34CCC(c5nc(C6CC6)no5)(CC3)CC4)C(=O)C34CC(F)(C3)C4)c1)CCOC2 [Example 328, N-(3-(3-cyano-7,8-dihydro-5H-pyrano[4,3-b]pyridin-2-yl)phenyl)-N-((4-(3-cyclopropyl-1,2,4-oxadiazol-5-yl)bicyclo[2.2.2]octan-1-yl)methyl)-3-fluorobicyclo[1.1.1]pentane-1-carboxamide] | 339 |
| CC(C)(F)c1nc(C23CCC(CN(C(=O)OC4CCC(F)(F)CC4)c4cc(-c5ccc(OC(F)F)cc5)c(F)cn4)(CC2)CC3)no1 [Example 631, 4,4-difluorocyclohexyl (4-(4-(difluoromethoxy)phenyl)-5-fluoropyridin-2-yl) ((4-(5-(2-fluoropropan-2-yl)-1,2,4-oxadiazol-3-yl)bicyclo[2.2.2]octan-1-yl)methyl) carbamate] | 117 |
| N#Cc1ccc(-c2cccc(N(CC34CCC(c5nc(C6CC6)no5)(CC3)CC4)C(=O)C34CC(F)(C3)C4)c2)nc1 [Example 297, N-(3-(5-cyanopyridin-2-yl)phenyl)-N-((4-(3-cyclopropyl-1,2,4-oxadiazol-5-yl)bicyclo[2.2.2]octan-1-yl)methyl)-3-fluorobicyclo[1.1.1]pentane-1-carboxamide] | 1250 |
| O=C(N(CC12CCC(c3cc(C(F)(F)F)ccn3)(CC1)CC2)c1cccc(-c2ccc(NS(=O)(=O)C3CC3)cc2)c1)C12CC(F)(C1)C2 [Example 354, N-(4′-(Cyclopropanesulfonamido)-[1,1′-biphenyl]-3-yl)-3-fluoro-N-((4-(4-(trifluoromethyl)pyridin-2-yl)bicyclo[2.2.2]octan-1-yl)methyl)bicyclo[1.1.1]pentane-1-carboxamide] | 489 |
| CC(C)(C)c1noc(C23CCC(CN(C(=O)C45CC(F)(C4)C5)c4cccc(-c5ccc(OC(F)F)cc5)c4)(CC2)CC3)n1 [Example 368, N-((4-(3-(tert-butyl)-1,2,4-oxadiazol-5-yl)bicyclo[2.2.2]octan-1-yl)methyl)-N-(4′-(difluoromethoxy)-[1,1′-biphenyl]-3-yl)-3-fluorobicyclo[1.1.1]pentane-1-carboxamide] | 135 |
| CS(=O)(=O)Nc1ccc(-c2cccc(N(CC34CCC(c5cnc(C(F)(F)F)nc5)(CC3)OC4)C(=O)C34CC(F)(C3)C4)c2)cc1 [Example 419, 3-fluoro-N-(4′-(methylsulfonamido)-[1,1′-biphenyl]-3-yl)-N-((1-(2-(trifluoromethyl)pyrimidin-5-yl)-2-oxabicyclo[2.2.2]octan-4-yl)methyl)bicyclo[1.1.1]pentane-1-carboxamide] | 523 |
| COc1ccc(-c2cccc(N(CC34CCC(c5nc(C6CC6)no5)(CC3)CC4)C(=O)C34CC(F)(C3)C4)c2)cc1OC [Example 301, N-((4-(3-cyclopropyl-1,2,4-oxadiazol-5-yl)bicyclo[2.2.2]octan-1-yl)methyl)-N-(3′,4′-dimethoxy-[1,1′-biphenyl]-3-yl)-3-fluorobicyclo[1.1.1]pentane-1-carboxamide] | 519 |
| COc1ccc(-c2cccc(N(CC34CCC(c5cc(C6CC6)nn5C)(CC3)CC4)C(=O)C34CC(F)(C3)C4)c2)cc1 [Example 414, N-((4-(3-cyclopropyl-1-methyl-1H-pyrazol-5-yl)bicyclo[2.2.2]octan-1-yl)methyl)-3-fluoro-N-(4′-methoxy-[1,1′-biphenyl]-3-yl)bicyclo[1.1.1]pentane-1-carboxamide] | 85 |
| CC(C)(C)c1nc(C23CCC(CN(C(=O)C4CC(O)(C(F)(F)F)C4)c4cccc(-c5ccc(NS(C)(=O)=O)cc5)c4)(CC2)CC3)no1 [Example 513, (1S,3S)—N-((4-(5-(tert-butyl)-1,2,4-oxadiazol-3-yl)bicyclo[2.2.2]octan-1-yl)methyl)-3-hydroxy-N-(4′-(methylsulfonamido)-[1,1′-biphenyl]-3-yl)-3-(trifluoromethyl)cyclobutane-1-carboxamide] | 922 |
| CN1CCN(c2cccc(N(CC34CCC(c5nc(C6CC6)no5)(CC3)CC4)C(=O)C34CC(F)(C3)C4)c2)CC1 [Example 416, N-((4-(3-cyclopropyl-1,2,4-oxadiazol-5-yl)bicyclo[2.2.2]octan-1-yl)methyl)-3-fluoro-N-(3-(4-methylpiperazin-1-yl)phenyl)bicyclo[1.1.1]pentane-1-carboxamide] | 1060 |
| CCc1ccc(-c2cccc(N(CC34CCC(c5nc(C6CC6)no5)(CC3)CC4)C(=O)C34CC(F)(C3)C4)c2)cc1 [Example 285, N-((4-(3-cyclopropyl-1,2,4-oxadiazol-5-yl)bicyclo[2.2.2]octan-1-yl)methyl)-N-(4′-ethyl-[1,1′-biphenyl]-3-yl)-3-fluorobicyclo[1.1.1]pentane-1-carboxamide] | 225 |
| N#Cc1cccc(-c2cccc(N(CC34CCC(c5nc(C6CC6)no5)(CC3)CC4)C(=O)C34CC(F)(C3)C4)c2)n1 [Example 292, N-(3-(6-cyanopyridin-2-yl)phenyl)-N-((4-(3-cyclopropyl-1,2,4-oxadiazol-5-yl)bicyclo[2.2.2]octan-1-yl)methyl)-3-fluorobicyclo[1.1.1]pentane-1-carboxamide] | 148 |
| CCOc1cnc(-c2cccc(N(CC34CCC(c5noc(C(C)(C)C)n5)(CC3)CC4)C(=O)C34CC(F)(C3)C4)c2)nc1 [Example 451, N-((4-(5-(tert-butyl)-1,2,4-oxadiazol-3-yl)bicyclo[2.2.2]octan-1-yl)methyl)-N-(3-(5-ethoxypyrimidin-2-yl)phenyl)-3-fluorobicyclo[1.1.1]pentane-1-carboxamide] | 47 |
| CC(C)(C)c1nc(C23CCC(CN(C(=O)C45CC(F)(C4)C5)c4cccc(-c5cnc(C(F)(F)F)nc5)c4)(CC2)CC3)no1 [Example 443, N-((4-(5-(tert-butyl)-1,2,4-oxadiazol-3-yl)bicyclo[2.2.2]octan-1-yl)methyl)-3-fluoro-N-(3-(2-(trifluoromethyl)pyrimidin-5-yl)phenyl)bicyclo[1.1.1]pentane-1-carboxamide] | 357 |
| COc1ncc(-c2cccc(N(CC34CCC(c5nc(C6CC6)no5)(CC3)CC4)C(=O)C34CC(F)(C3)C4)c2)cn1 [Example 248, N-((4-(3-cyclopropyl-1,2,4-oxadiazol-5-yl)bicyclo[2.2.2]octan-1-yl)methyl)-3-fluoro-N-(3-(2-methoxypyrimidin-5-yl)phenyl)bicyclo[1.1.1]pentane-1-carboxamide] | 154 |
| Cc1nc2ccc(-c3cccc(N(CC45CCC(c6ccc(C(=O)N(C)C)cc6)(CC4)OC5)C(=O)C45CC(F)(C4)C5)c3)cc2s1 [Example 569, N-((1-(4-(dimethylcarbamoyl)phenyl)-2-oxabicyclo[2.2.2]octan-4-yl)methyl)-3-fluoro-N-(3-(2-methylbenzo[d]thiazol-6-yl)phenyl)bicyclo[1.1.1]pentane-1-carboxamide] | 2220 |
| O=C(C1CC(O)(C(F)(F)F)C1)N(CC12CCC(c3noc(-c4ccc(F)cc4)n3)(CC1)CC2)c1cccc(-c2ccc(OC(F)F)cc2)c1 (stereo not drawn) [Example 639, (cis)-N-(4′-(difluoromethoxy)-[1,1′-biphenyl]-3-yl)-N-((4-(5-(4-fluorophenyl)-1,2,4-oxadiazol-3-yl)bicyclo[2.2.2]octan-1-yl)methyl)-3-hydroxy-3-(trifluoromethyl)cyclobutane-1-carboxamide] | 221 |
| CCOc1ccc(-c2cccc(N(CC34CCC(c5noc(C6(C)CC6)n5)(CC3)CC4)C(=O)C34CC(F)(C3)C4)c2)cn1 [Example 401, N-(3-(6-ethoxypyridin-3-yl)phenyl)-3-fluoro-N-((4-(5-(1-methylcyclopropyl)-1,2,4-oxadiazol-3-yl)bicyclo[2.2.2]octan-1-yl)methyl)bicyclo[1.1.1]pentane-1-carboxamide] | 42 |
